Data taken from ChEMBL document CHEMBL1201862, “PubChem BioAssay data set” (2004).
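Cells were grown in 96-well plates and exposed to each compound for 48 hours at five concentrations; endpoints were interpolated linearly between bracketing concentrations, or set to the highest concentration if not reached. Here, GI50 denotes the concentration required for 50% inhibition of growth.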 Calls of active or inactive are those of the source. No stated cut-off is given here; in the data, active = GI50 up to about 1.1 µM and inactive = higher.

Tests used:
Assay in all cases: NCI-60 cell line screen, 48 h
RXF 631 = tested on: RXF 631
XF498 = tested on: XF498
KM-20L2 = tested on: KM-20L2
M19-MEL = tested on: M19-MEL
DMS-273 = tested on: DMS-273
LXFL 529 = tested on: LXFL 529
HOP-18 = tested on: HOP-18
DMS-114 = tested on: DMS-114
DLD-1 = tested on: DLD-1

Measured: GI50

CCCCCCCCC(=O)NCCN(CCN)C(=O)CCCCCCCC
inactive: RXF 631 4.08 µM | XF498 2.42 µM | KM-20L2 5.04 µM | M19-MEL 5.74 µM | DMS-273 2.87 µM | LXFL 529 3.36 µM | HOP-18 16.7 µM | DMS-114 4.79 µM | DLD-1 5.37 µM
